Assay results: patent publication US20230210831A1, “CHRONIC KIDNEY DISEASE TREATMENT OR PREVENTION METHOD” (Japan Tobacco Inc., priority 2019, published 2023)

Assays:
Assay type in all cases: cell-based
[1] = test system: Salmonella typhimurium TA98; experiment: Ames test (reverse mutation test), TA98
Method: (§1) The solvent used herein was dimethyl sulfoxide (DMSO, 100 µL/plate).
(§2) The mixtures were preincubated at 37° C. for 20 minutes while shaking. […] Two plates per treatment were used.

[2] = test system: Salmonella typhimurium TA1537; experiment: Ames test (reverse mutation test), TA1537
Method: as §1, §2

[3] = test system: Salmonella typhimurium TA100; experiment: Ames test (reverse mutation test), TA100
Method: as §1, §2

[4] = test system: Salmonella typhimurium TA1535; experiment: Ames test (reverse mutation test), TA1535
Method: as §1, §2

Escherichia coli WP2uvrA = experiment: Ames test (reverse mutation test), WP2uvrA
Method: as §1, §2

Nc1cc(-c2cccc(OC(F)(F)F)c2)n(-c2cccc(F)c2)n1 [Metabolite G]
Number of revertant colonies TA98 ([1]; S9 Mix +, dose 2.3 µg/plate): 35 | Number of revertant colonies TA98 ([1]; S9 Mix +, dose 6.9 µg/plate): 63 | Number of revertant colonies TA98 ([1]; S9 Mix +, dose 21 µg/plate): 76 | Number of revertant colonies TA98 ([1]; S9 Mix +, dose 62 µg/plate): 75 | Number of revertant colonies TA98 ([1]; S9 Mix +, dose 185 µg/plate): 45 | Number of revertant colonies TA98 ([1]; S9 Mix +, dose 556 µg/plate): 12 | Number of revertant colonies TA98 ([1]; S9 Mix +, dose 1667 µg/plate): 11 | Number of revertant colonies TA98 ([1]; S9 Mix +, dose 5000 µg/plate): 0 | Number of revertant colonies TA98 ([1]; S9 Mix -, dose 2.3 µg/plate): 31 | Number of revertant colonies TA98 ([1]; S9 Mix -, dose 6.9 µg/plate): 30 | Number of revertant colonies TA98 ([1]; S9 Mix -, dose 21 µg/plate): 31 | Number of revertant colonies TA98 ([1]; S9 Mix -, dose 62 µg/plate): 30 | Number of revertant colonies TA98 ([1]; S9 Mix -, dose 185 µg/plate): 13 | Number of revertant colonies TA98 ([1]; S9 Mix -, dose 556 µg/plate): 15 | Number of revertant colonies TA98 ([1]; S9 Mix -, dose 1667 µg/plate): 8 | Number of revertant colonies TA98 ([1]; S9 Mix -, dose 5000 µg/plate): 0 | Number of revertant colonies TA1537 ([2]; S9 Mix +, dose 2.3 µg/plate): 13 | Number of revertant colonies TA1537 ([2]; S9 Mix +, dose 6.9 µg/plate): 13 | Number of revertant colonies TA1537 ([2]; S9 Mix +, dose 21 µg/plate): 16 | Number of revertant colonies TA1537 ([2]; S9 Mix +, dose 62 µg/plate): 15 | Number of revertant colonies TA1537 ([2]; S9 Mix +, dose 185 µg/plate): 13 | Number of revertant colonies TA1537 ([2]; S9 Mix +, dose 556 µg/plate): 0 | Number of revertant colonies TA1537 ([2]; S9 Mix +, dose 1667 µg/plate): 0 | Number of revertant colonies TA1537 ([2]; S9 Mix +, dose 5000 µg/plate): 0 | Number of revertant colonies TA1537 ([2]; S9 Mix -, dose 2.3 µg/plate): 15 | Number of revertant colonies TA1537 ([2]; S9 Mix -, dose 6.9 µg/plate): 15 | Number of revertant colonies TA1537 ([2]; S9 Mix -, dose 21 µg/plate): 17 | Number of revertant colonies TA1537 ([2]; S9 Mix -, dose 62 µg/plate): 7 | Number of revertant colonies TA1537 ([2]; S9 Mix -, dose 185 µg/plate): 0 | Number of revertant colonies TA1537 ([2]; S9 Mix -, dose 556 µg/plate): 0 | Number of revertant colonies TA1537 ([2]; S9 Mix -, dose 1667 µg/plate): 0 | Number of revertant colonies TA1537 ([2]; S9 Mix -, dose 5000 µg/plate): 0 | Number of revertant colonies TA100 ([3]; S9 Mix +, dose 2.3 µg/plate): 153 | Number of revertant colonies TA100 ([3]; S9 Mix +, dose 6.9 µg/plate): 248 | Number of revertant colonies TA100 ([3]; S9 Mix +, dose 21 µg/plate): 506 | Number of revertant colonies TA100 ([3]; S9 Mix +, dose 62 µg/plate): 630 | Number of revertant colonies TA100 ([3]; S9 Mix +, dose 185 µg/plate): 380 | Number of revertant colonies TA100 ([3]; S9 Mix +, dose 556 µg/plate): 82 | Number of revertant colonies TA100 ([3]; S9 Mix +, dose 1667 µg/plate): 94 | Number of revertant colonies TA100 ([3]; S9 Mix +, dose 5000 µg/plate): 226 | Number of revertant colonies TA100 ([3]; S9 Mix -, dose 2.3 µg/plate): 91 | Number of revertant colonies TA100 ([3]; S9 Mix -, dose 6.9 µg/plate): 101 | Number of revertant colonies TA100 ([3]; S9 Mix -, dose 21 µg/plate): 93 | Number of revertant colonies TA100 ([3]; S9 Mix -, dose 62 µg/plate): 90 | Number of revertant colonies TA100 ([3]; S9 Mix -, dose 185 µg/plate): 80 | Number of revertant colonies TA100 ([3]; S9 Mix -, dose 556 µg/plate): 59 | Number of revertant colonies TA100 ([3]; S9 Mix -, dose 1667 µg/plate): 61 | Number of revertant colonies TA100 ([3]; S9 Mix -, dose 5000 µg/plate): 47 | potential to induce reverse mutations ([3]; TA100 with S9 mix): showed potential to induce reverse mutations | Number of revertant colonies TA1535 ([4]; S9 Mix +, dose 556 µg/plate): 5 | Number of revertant colonies TA1535 ([4]; S9 Mix +, dose 1667 µg/plate): 4 | Number of revertant colonies TA1535 ([4]; S9 Mix -, dose 185 µg/plate): 9 | Number of revertant colonies TA1535 ([4]; S9 Mix -, dose 556 µg/plate): 0 | Number of revertant colonies TA1535 ([4]; S9 Mix -, dose 1667 µg/plate): 0 | potential to induce reverse mutations ([4]; TA1535 without S9 mix): showed potential to induce reverse mutations | Number of revertant colonies WP2uvrA (Escherichia coli WP2uvrA; S9 Mix +, dose 2.3 µg/plate): 34 | Number of revertant colonies WP2uvrA (Escherichia coli WP2uvrA; S9 Mix +, dose 6.9 µg/plate): 39 | Number of revertant colonies WP2uvrA (Escherichia coli WP2uvrA; S9 Mix +, dose 21 µg/plate): 22 | Number of revertant colonies WP2uvrA (Escherichia coli WP2uvrA; S9 Mix +, dose 62 µg/plate): 24 | Number of revertant colonies WP2uvrA (Escherichia coli WP2uvrA; S9 Mix +, dose 185 µg/plate): 16 | Number of revertant colonies WP2uvrA (Escherichia coli WP2uvrA; S9 Mix +, dose 556 µg/plate): 14 | Number of revertant colonies WP2uvrA (Escherichia coli WP2uvrA; S9 Mix +, dose 1667 µg/plate): 9 | Number of revertant colonies WP2uvrA (Escherichia coli WP2uvrA; S9 Mix +, dose 5000 µg/plate): 14 | Number of revertant colonies WP2uvrA (Escherichia coli WP2uvrA; S9 Mix -, dose 2.3 µg/plate): 26 | Number of revertant colonies WP2uvrA (Escherichia coli WP2uvrA; S9 Mix -, dose 6.9 µg/plate): 23 | Number of revertant colonies WP2uvrA (Escherichia coli WP2uvrA; S9 Mix -, dose 21 µg/plate): 16 | Number of revertant colonies WP2uvrA (Escherichia coli WP2uvrA; S9 Mix -, dose 62 µg/plate): 14 | Number of revertant colonies WP2uvrA (Escherichia coli WP2uvrA; S9 Mix -, dose 185 µg/plate): 15 | Number of revertant colonies WP2uvrA (Escherichia coli WP2uvrA; S9 Mix -, dose 556 µg/plate): 10 | Number of revertant colonies WP2uvrA (Escherichia coli WP2uvrA; S9 Mix -, dose 1667 µg/plate): 17 | Number of revertant colonies WP2uvrA (Escherichia coli WP2uvrA; S9 Mix -, dose 5000 µg/plate): 6
